Experimental findings from patent publication US7534871B2, “Preparation and use of carbohydrate-based bicyclic ring structures with antimicrobial and cytostatic activity” (Kemin Pharma B.V.B.A., priority 2004, dated 2009) are described below.

The first test concerns VRE ATCC700221. Put plainly: Anti-bacterial activity, Bioscreen C growth curve: VRE. It counts as cell-based, vancomycin-resistant Enterococcus (VRE). To be noted: Enterococcus, 35° C., 16 hours, negative control = 100, read-out: % of growth at 25 PPM compared to the negative control, VRE ATCC700221. On the procedure:
(§1) For the determination of the anti-bacterial and anti-fungal activity the Bioscreen C Analyser Labsystems, Finland, was used. This is an automated reader-incubator. It measures growth continuously by vertical photometry (optical density), processes the data and provides a print out of the results. The area under the growth curve is automatically determined via the Biolink software.
(§2) The inoculum size of the bacteria is standardized to approximately 5×10^5 CFU/ml.
(§3) For bacteria, the 100-honey-well plates containing test chemical, Mueller-Hinton broth and inoculum (=sample) are incubated at 35° C. for 16 hours. Also wells without inoculum are incubated (=blanco). Yeasts are incubated 35° C. for 24 hours in RPMI 1640+MOPS buffer at 165 mM. Moulds also in RPMI 1640+MOPS buffer at 165 mM are incubated 25° C. for 5 days. All micro-organisms are screened against a known concentration of the reference antibiotics or antimycotics such as vancomycin, penicillin G, gentamicin or amphotericin B. The growth curve and the area under the growth curve can be determined using the Biolink software; this is illustrated in FIG. 1.
(§4) The area of the blanco is subtracted from the area of the sample, this number (delta) gives us an indication of the biological activity of the molecules tested and can be expressed as a % of growth at a specific dose compared to a negative control that has a value of 100, illustrated in FIG. 2. Screening of each dose of a specific compound is repeated 5 times. The dose used for all new molecules in all tests is 25 PPM or 25 μg/ml.
(§5) In Table 4 the results of the anti-bacterial activity is given for the new molecules. The micro-organisms used are Staphylococcus aureus, MRSA, VRE, Enterococcus faecalis, Salmonella typhimurium and Pseudomonas aeruginosa.
Turning to `CO[C@@H]1[C@@H](OC)[C@H](O)[C@@H](CO)O[C@H]1Cc1ccccc1` [KPE00001020], the activity at 25 ppm amounted to 99%.
As to `O=C1CC/C=C/CCC(=O)O[C@H]2[C@H](OCc3ccccc3)[C@@H](OCc3ccccc3)[C@H](Sc3ccccc3)O[C@@H]2CO1` [KPE00001037], the activity at 25 ppm was determined as 90%.
Take `CO[C@@H]1[C@@H](OC)[C@H](c2ccccc2)O[C@@H]2COC(=O)CCC3OC3CCC(=O)O[C@@H]12` (stereo partly drawn) [KPE00001039]: the activity at 25 ppm turned out to be 93%.

For another test, the system named is Candida albicans IHEM 10284 - ATCC 24433. Put plainly: Anti-fungal activity, Bioscreen C growth curve: Candida albicans (yeast). It counts as cell-based. The following applies: Candida albicans, ATCC24433; 25 PPM; 35° C., 24 hours; negative control = 100; read-out: % of growth at a dose of 25 PPM compared to the negative control, Candida albicans IHEM 10284 - ATCC 24433. The protocol: as §1
The inoculum size of the yeast is standardized to 0.5-2.5×10^3 CFU/ml.
as §3, §4
(§6) In Table 5 the anti-fungal activity is given for the new molecules. The micro-organisms used were Candida albicans (a typical yeast) and Microsporum gypseum (a typical mold).
(§7) Also for the determination of the anti-fungal activity the Bioscreen C Analyser Labsystems Oy, Finland was used. It measures growth continuously by vertical photometry (optical density), processes the data and provides a print out of the results. The area under the growth curve is automatically determined via the Biolink software.
(§8) The inoculum size of the yeast is standardized to 0.5-2.5×10^3 CFU/ml. The inoculum size of the mould is standardized to 0.4-5.0×10^4 CFU/ml. Yeasts are incubated 35° C. for 24 hours in RPMI 1640+MOPS buffer at 165 mM. Moulds also in RPMI 1640+MOPS buffer at 165 mM are incubated 25° C. for 5 days.
(§9) As a control, all micro-organisms are screened against some reference antibiotics with known MIC. Screening of each dose of a specific compound is repeated 5 times.
For the compound `CO[C@@H]1[C@@H](OC)[C@H](O)[C@@H](CO)O[C@H]1Cc1ccccc1` [KPE00001020], the activity at 25 ppm was determined as 91%.
For `O=C1CC/C=C/CCC(=O)O[C@H]2[C@H](OCc3ccccc3)[C@@H](OCc3ccccc3)[C@H](Sc3ccccc3)O[C@@H]2CO1` [KPE00001037], the activity at 25 ppm amounted to 87.4%.
Consider `CO[C@@H]1[C@@H](OC)[C@H](c2ccccc2)O[C@@H]2COC(=O)CCC3OC3CCC(=O)O[C@@H]12` (stereo partly drawn) [KPE00001039], for which the activity at 25 ppm turned out to be 96.4%.

A further test deals with MRSA ATCC33591. In words: Anti-bacterial activity, Bioscreen C growth curve: MRSA. It counts as cell-based, methicillin-resistant Staphylococcus aureus (MRSA). To be noted: Staphylococcus aureus, ATCC 33591 / LMG10147 / MRSA; 25 PPM; 35° C., 16 hours; negative control = 100; read-out: % of growth at 25 PPM compared to the negative control, MRSA ATCC33591 LMG10147. The protocol: as §1, §2, §3, §4, §5
In the case of `CO[C@@H]1[C@@H](OC)[C@H](O)[C@@H](CO)O[C@H]1Cc1ccccc1` [KPE00001020], the activity at 25 ppm was determined as 99%.
Consider `O=C1CC/C=C/CCC(=O)O[C@H]2[C@H](OCc3ccccc3)[C@@H](OCc3ccccc3)[C@H](Sc3ccccc3)O[C@@H]2CO1` [KPE00001037], for which the activity at 25 ppm was found to be 107%.
As for `CO[C@@H]1[C@@H](OC)[C@H](c2ccccc2)O[C@@H]2COC(=O)CCC3OC3CCC(=O)O[C@@H]12` (stereo partly drawn) [KPE00001039], the activity at 25 ppm is 102%.

A further test deals with E. faecalis ATTC29212 LMG 8222. Put plainly: Anti-bacterial activity, Bioscreen C growth curve: E. faecalis. It counts as cell-based. To be noted: Enterococcus faecalis, LMG8222, 35° C., 16 hours, negative control = 100, read-out: % of growth at 25 PPM compared to the negative control, E. faecalis ATTC29212 LMG 8222. The protocol:
as §1, §2, §3, §4, §5
Regarding `CO[C@@H]1[C@@H](OC)[C@H](O)[C@@H](CO)O[C@H]1Cc1ccccc1` [KPE00001020], the activity at 25 ppm came to 98.4%.
In the case of `O=C1CC/C=C/CCC(=O)O[C@H]2[C@H](OCc3ccccc3)[C@@H](OCc3ccccc3)[C@H](Sc3ccccc3)O[C@@H]2CO1` [KPE00001037], the activity at 25 ppm stood at 97.6%.
Still for that read-out and setting: under `CO[C@@H]1[C@@H](OC)[C@H](c2ccccc2)O[C@@H]2COC(=O)CCC3OC3CCC(=O)O[C@@H]12` (stereo partly drawn) [KPE00001039] stands 94.1%.

In a further test the test system is S. typhimurium ATTC700408. In words: Anti-bacterial activity, Bioscreen C growth curve: S. typhimurium. The following applies: Salmonella enterica, LMG16217 / TYPHIMURIUM, 35° C., 16 hours, negative control = 100, read-out: % of growth at 25 PPM compared to the negative control, S. typhimurium ATTC700408 LMG16217. It counts as cell-based. On the procedure:
as §1, §2, §3, §4, §5
Take `CO[C@@H]1[C@@H](OC)[C@H](O)[C@@H](CO)O[C@H]1Cc1ccccc1` [KPE00001020]: the activity at 25 ppm came to 92.3%.
For `O=C1CC/C=C/CCC(=O)O[C@H]2[C@H](OCc3ccccc3)[C@@H](OCc3ccccc3)[C@H](Sc3ccccc3)O[C@@H]2CO1` [KPE00001037], the activity at 25 ppm turned out to be 91%.
In the case of `CO[C@@H]1[C@@H](OC)[C@H](c2ccccc2)O[C@@H]2COC(=O)CCC3OC3CCC(=O)O[C@@H]12` (stereo partly drawn) [KPE00001039], the activity at 25 ppm is 97%.

The test system of a further test is S. aureus ATTC29213 LMG10147. Put plainly: Anti-bacterial activity, Bioscreen C growth curve: S. aureus. Type of test: cell-based. The following applies: Staphylococcus aureus, 35° C., 16 hours, negative control = 100, read-out: % of growth at 25 PPM compared to the negative control, S. aureus ATTC29213 LMG10147. On the procedure:
as §1, §2, §3, §4, §5
As for `CO[C@@H]1[C@@H](OC)[C@H](O)[C@@H](CO)O[C@H]1Cc1ccccc1` [KPE00001020], the activity at 25 ppm was 97.9%.
Turning to `O=C1CC/C=C/CCC(=O)O[C@H]2[C@H](OCc3ccccc3)[C@@H](OCc3ccccc3)[C@H](Sc3ccccc3)O[C@@H]2CO1` [KPE00001037], the activity at 25 ppm stood at 98.5%.
On to `CO[C@@H]1[C@@H](OC)[C@H](c2ccccc2)O[C@@H]2COC(=O)CCC3OC3CCC(=O)O[C@@H]12` (stereo partly drawn) [KPE00001039], for which the activity at 25 ppm was 97.7%.

A further test has as its system Microsporum gypseum IHEM 3999 - ATCC 14683. Put plainly: Anti-fungal activity, Bioscreen C growth curve: Microsporum gypseum (mold). It counts as cell-based. To be noted: Nannizzia gypsea, ATCC14683, 120 h; 25 PPM; 25° C., 5 days; negative control = 100; read-out: % of growth at a dose of 25 PPM compared to the negative control, Microsporum gypseum IHEM 3999 - ATCC 14683. On the procedure: as §1
The inoculum size of the mould is standardized to 0.4-5.0×10^4 CFU/ml.
as §3, §4, §6, §7, §8, §9
`CO[C@@H]1[C@@H](OC)[C@H](O)[C@@H](CO)O[C@H]1Cc1ccccc1` [KPE00001020]: the activity at 25 ppm turned out to be 78%.
Take `O=C1CC/C=C/CCC(=O)O[C@H]2[C@H](OCc3ccccc3)[C@@H](OCc3ccccc3)[C@H](Sc3ccccc3)O[C@@H]2CO1` [KPE00001037]: the activity at 25 ppm amounted to 73%.
For the compound `CO[C@@H]1[C@@H](OC)[C@H](c2ccccc2)O[C@@H]2COC(=O)CCC3OC3CCC(=O)O[C@@H]12` (stereo partly drawn) [KPE00001039], the activity at 25 ppm came to 77%.

The next test relates to P. aeruginosa ATCC27853 LMG16217. Put plainly: Anti-bacterial activity, Bioscreen C growth curve: P. aeruginosa. Type of test: cell-based, Pseudomonas aeruginosa. To be noted: Pseudomonas aeruginosa; 25 PPM; 35° C., 16 hours; negative control = 100; read-out: % of growth at 25 PPM compared to the negative control, P. aeruginosa ATCC27853 LMG16217. On the procedure: as §1, §2, §3, §4, §5
Regarding `CO[C@@H]1[C@@H](OC)[C@H](O)[C@@H](CO)O[C@H]1Cc1ccccc1` [KPE00001020], the activity at 25 ppm was 94.4%.
As to `O=C1CC/C=C/CCC(=O)O[C@H]2[C@H](OCc3ccccc3)[C@@H](OCc3ccccc3)[C@H](Sc3ccccc3)O[C@@H]2CO1` [KPE00001037], the activity at 25 ppm amounted to 89.3%.
With `CO[C@@H]1[C@@H](OC)[C@H](c2ccccc2)O[C@@H]2COC(=O)CCC3OC3CCC(=O)O[C@@H]12` (stereo partly drawn) [KPE00001039], the activity at 25 ppm turned out to be 91.3%.
